What was measured:
Assay in all cases: relative viability (nuclei count vs DMSO), 5 days (fraction); higher = more cells survive
Sulindac + Bortezomib = compound: CC1=C(CC(=O)O)c2cc(F)ccc2/C1=C\c1ccc([S+](C)[O-])cc1 [Sulindac] + CC(C)C[C@H](NC(=O)[C@H](Cc1ccccc1)NC(=O)c1cnccn1)B(O)O [Bortezomib] (partner 0.002 µM)
How it was run: (§1)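 Lung cancer cell lines were seeded in 1536-well plates and dosed by pin tool the next day, with either a single drug or a fixed anchor-drug dose combined with five library-drug doses (not always all listed) spaced in √10 steps. Five days later, one step fixed the cells and stained their nuclei (final 0.05% Triton X-100, 1% formaldehyde, 1 ug/ml Hoechst), and nuclei were counted on 4× images. Relative viability is the nuclei count in treated wells divided by the count in vehicle wells, and each value is the median of duplicate plates.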

Sulindac + Linsitinib = compound: CC1=C(CC(=O)O)c2cc(F)ccc2/C1=C\c1ccc([S+](C)[O-])cc1 [Sulindac] + C[C@]1(O)C[C@@H](c2nc(-c3ccc4ccc(-c5ccccc5)nc4c3)c3c(N)nccn32)C1 [Linsitinib] (partner 1 µM)
How it was run: as §1

Sulindac + Phenformin = compound: CC1=C(CC(=O)O)c2cc(F)ccc2/C1=C\c1ccc([S+](C)[O-])cc1 [Sulindac] + N=C(N)NC(=N)NCCc1ccccc1 [Phenformin] (partner 250 µM)
How it was run: as §1

[1] = compound: O=c1[nH]cc(F)c(=O)[nH]1 [5-Fluorouracil] + Cc1nc(Nc2ncc(C(=O)Nc3c(C)cccc3Cl)s2)cc(N2CCN(CCO)CC2)n1 [Dasatinib] (partner 0.075 µM)
How it was run: as §1

Cell Line	relative viability (Sulindac + Bortezomib; first compound 0.08 µM)	relative viability (Sulindac + Bortezomib; first compound 0.253 µM)	relative viability (Sulindac + Bortezomib; first compound 0.8 µM)	relative viability (Sulindac + Bortezomib; first compound 2.53 µM)	relative viability (Sulindac + Bortezomib; first compound 8 µM)	relative viability (Sulindac + Linsitinib; first compound 0.08 µM)	relative viability (Sulindac + Linsitinib; first compound 0.253 µM)	relative viability (Sulindac + Linsitinib; first compound 0.8 µM)	relative viability (Sulindac + Linsitinib; first compound 2.53 µM)	relative viability (Sulindac + Linsitinib; first compound 8 µM)	relative viability (Sulindac + Phenformin; first compound 0.08 µM)	relative viability (Sulindac + Phenformin; first compound 0.253 µM)	relative viability (Sulindac + Phenformin; first compound 0.8 µM)	relative viability (Sulindac + Phenformin; first compound 2.53 µM)	relative viability (Sulindac + Phenformin; first compound 8 µM)	relative viability ([1]; first compound 0.02 µM)	relative viability ([1]; first compound 0.2 µM)	relative viability ([1]; first compound 0.6325 µM)	relative viability ([1]; first compound 2 µM)
NCI-H2023	1.13	1.04	0.666	1	1.07	0.808	0.725	0.43	0.712	0.757	0.423	0.498	0.325	0.419	0.571	0.542	0.185	0.102	0.0866
ChaGo-K-1	1.07	1.1	0.885	0.882	1.35						0.592	0.51	0.481	0.5	0.596	0.558	0.595	0.386	0.39
COR-L 105	0.819	0.939	0.626	0.724	1.09	1.1	0.857	0.729	0.992	1.13	0.456	0.477	0.417	0.564	0.558	0.292	0.362	0.29	0.244
NCI-H2170											0.471	0.407	0.411	0.384	0.432	0.566	0.53	0.393	0.28
A549						0.532	0.535		0.572	0.641	0.109	0.154	0.95	0.232	0.244				
NCI-H460		1.19		1.12	1.67	1.13	0.79		0.988	1.15	1.03	0.666	0.201	0.543	0.585	0.584	0.488	0.159	0.0618
NCI-H1993	1.11	1.1	1.03	0.945	1.29	0.741	0.674	0.789	0.735	0.82	0.431	0.479	0.51	0.461	0.531	0.581	0.566	0.503	0.487
Calu-6	1.11	1.14	0.915	1.02	1.13	1.29	1.07	0.738	1.03	1.11									
SW 900												0.723		0.563	0.606	0.507	0.539	0.548	0.577
NCI-H1623											0.561	0.595	0.663	0.632	0.6	0.412	0.64	0.256	0.232
NCI-H322M	1.22	1.33	1.19	1.3	1.38	1.01	1.01	0.747	0.951	1.05	0.881	0.833	0.668	0.762	0.879	0.279	0.243	0.242	0.234

From the supplement of paper PMC10307832
